Reference: patent publication US10919889B2, “Chiral heterocyclic compound with hedgehog pathway antagonist activity, method and use thereof” (SUZHOU KINTOR PHARMACEUTICALS, INC., priority 2016, dated 2021)
Entries after “also recorded” stand apart in the source; their conditions may differ. Like-named read-outs stand apart in the source and are kept apart here.

Assays:
[1] = test system: primary medulloblastoma of Patched (PTCH)+/−, p53−/− mice; experiment: Mouse tumor model (tumor inhibition); type: in vivo, SCID mice; conditions: 100 mg/kg/day, 14 days
Procedure: Tumor cells from the primary medulloblastoma of Patched (PTCH)+/−, p53−/− mice were injected subcutaneously into the right side of SCID mice. About 7 days after implantation, treatments were started when the tumor volume grew to an average of 200 mm^3. Animals were randomly divided into blank group, compound B administration group and compound B1 administration group. The doses of compound B1 and racemic compound B were 100 mg/kg/day. Tumor volume […] and body weight (g) were recorded every other day. After 14 days of administration, mice were sacrificed and the tumors were removed.
Primary medulloblastoma (5×10^6) from Patched(PTCH)+/−, p53−/− mice can be […] injected into the right sides of SCID mice. Seven days after the injection, treatment with drugs can start when the average size of tumors reaches 200 mm^3. Subjects can be randomly assigned to the control group, the compound B-treatment group and the compound B1-treatment group. Compounds B and B1 can be administered at dosages of about 100 mg/kg/day. The tumor volume and the body weights of the subjects can be measured and recorded every other day. On the 14th day after the drug administration, the subjects can be sacrificed and their tumors can be removed.

[2] = Rat pharmacokinetics experiments; type: in vivo, Sprague-Dawley rats; conditions: for Vd: read-out: Apparent volume of distribution Vd, ss; for AUC(0-t): read-out: Area under the curve AUC0-24 h; for clearance: read-out: Clearance CL; for bioavailability / concentration at 8 h: po; for concentration at 8 h: oral dose 10 mg/kg
Procedure: Male Spraguee-Dawley rats (body weight: 220 g˜250 g) were purchased from Slac Laboratory Animals (Shanghai). […] Blood samples were taken through the posterior orbital vein and the blood samples were placed in a tube containing EDTA (as an anticoagulant) and stored in a −80° C. environment after centrifugation with a refrigerated centrifuge. Blood sample (at an amount of folds of 25 μL) was taken and cold acetonitrile containing the internal standard (100 μL) was added. Sample was centrifuged for 10 minutes to precipitate the plasma protein. Finally, supernatant (10 μL) was injected into the LC-MS/MS system for analysis.
LC-MS/MS analysis method: All samples were analyzed by LC-MS/MS system of API4000 QTRAP mass spectrometer equipped with LC-20AD and CBM-20A controllers, DGU-20A solvent degasser and SIL-20A autosampler (Japan Shimadzu, Colombia, Md., USA). A Bona Aeger Venusil XBP C18 column (50×2.1 mm; filler 5 micron particle size) was used for HPLC separation. The column temperature was maintained at 40° C. The flow rate was 0.3 mL/min and the total run time was 6 minutes.
For the quantification of MS/MS, the API4000 QTRAP mass spectrometer was operated in an ESI positive mode with multiple reaction monitoring (MRM). All compounds and internal standards were set to be monitored during a residence time of 100 milliseconds. The other MS/MS parameters were set as follows: atomization gas (GS1) at 30 psi, 551b turbine pressure, 4500V ion spray voltage, 500° C. ion source temperature. For the selected ion transitions, each analyte was tested at the optimal sensitivity of the cluster potential (DP) and the collision energy (CE). Finally, the data was collected and processed using AB SCIEX Analysist 1.5.2 data collection and integration software.
Test subjects, Sprague-Dawley rats (body weight from about 220 g to about 250 g), were purchased from Slac Laboratory Animals (Shanghai, China). All compounds tested at 1 mg/mL concentration, either intravenous injected at a tail vein at 1 mL/kg dosage for one group of test subjects or administered orally at a dose of 10 mL/kg in another group of test subjects. Then aliquots of blood samples were collected by retro-orbital venous plexus puncture at time intervals after the injection/administration. The blood samples were kept in tubes containing EDTA, centrifuged and stored at −80° C. before analysis. Blank plasma was collected by the same method before rats were treated with compounds. Plasma samples for analysis were obtained by removing about 25 μL from the saved blood sample; adding cold acetonitrile (about 100 μL) as internal standard; centrifuged for 10 minutes to precipitate plasma proteins; and collect about 10 μL of the upper clear solution for analysis done by an LC-MS/MS system.
All samples were analyzed by an API 4000 QTRAP® LC/MS/MS System equipped with Shimadzu LC-20AD pump, Shimadzu CBM-20A controller, SIL-20A autosampler and DGU-20A degasser (Shimadzu, Columbia, Md., USA). A Venusil XBP C18 HPLC Column (2.1×50 mm, 5 μm) (Bonna-Agela Technologies) was used for HPLC separation at isocratic temperature of 40° C. Flow rate was kept at 0.3 mL/min and the total run time was kept at 6 minutes.
Quantification by MS/MS is done using the above-described API 4000 QTRAP mass spectrometer equipped with multiple reaction monitoring (MRM) and positive electrospray ionization (ESI+) modes. All compounds and internal standard were detected at […] of about 100 milliseconds. Other parameters for MS/MS are shown below: Ion Source Gas 1 (GS1) at 30 psi, turbine pressure at 55 pounds, ion spray voltage at 4500 V, and ion source temperature at 500° C. MRM measurements of the analytes were performed using declustering potential (DP) and […] values optimized for each analyte. Finally, all of the operations, the acquisition and analysis of data were controlled by Analyst (version 1.5.2, AB Sciex, USA).

[3] = male, Sprague-Dawley, plasma, intravenous injection, 2 mg/kg
[4] = male, Sprague-Dawley, plasma, oral, 10 mg/kg
[5] = male, Sprague-Dawley, plasma, oral, 10 mg/kg, read-out: Maximum plasma concentration Cmax
[6] = male, Sprague-Dawley, plasma, oral, 10 mg/kg, read-out: Peak time Tmax
[7] = male, Sprague-Dawley, plasma, 10 mg/kg, P.O. 10 mg/kg vs I.V. 2 mg/kg, read-out: F %
[8] = male, Sprague-Dawley, plasma, 10 mg/kg, oral 10 mg/kg vs intravenous 2 mg/kg, read-out: Bioavailability F %
[9] = male, Sprague-Dawley, plasma, 10 mg/kg, read-out: plasma concentration after 8 hours
[10] = male, Sprague-Dawley, plasma, 10 mg/kg, read-out: plasma concentration after 8 hours in terms of molecular weight conversion
[11] = male, Sprague-Dawley, plasma, 10 mg/kg, oral, read-out: bioavailability

AUC0-24 h ([2]; I.V., 2 mg/kg) [ng·h/mL]	CL ([2]; I.V., 2 mg/kg) [mL/min/kg]	AUC0-24 h ([2]; P.O., 10 mg/kg) [ng·h/mL]	Vd [2, 3] [L/kg]	AUC(0-t) [2, 3] [ng·h/mL]	clearance [2, 3] [mL/min/kg]	AUC(0-t) [2, 4] [ng·h/mL]	Cmax [2, 5] [ng/mL]	Tmax [2, 6] [h]	bioavailability [2, 7] [%]	bioavailability [2, 8] [%]	concentration at 8 h [2, 9] [ng/mL]	concentration at 8 h [2, 10] [nM]	bioavailability [2, 11] [%]	Structure (SMILES)	effect on tumor volume (in words) [1]	further results
2905	11.4	7685	3.1	2900	11.4	7680	1690	0.5	53	53	83	178	53	Cc1cnc(-c2cc(N3CCc4nc(N5CCC(O)CC5)ncc4C3C)ncc2Cl)c(C)c1 (racemic) [B]	stop the tumor from growing; also recorded: only stopped the growth of tumor; also recorded: may stop the tumors from growing	effect on tumor volume (in words) ([1]; listed as racemic compound): only stop the tumor growth
2233	14.4	12324	2.2	2230	14.4	12300	1520	1	100	100	623	1340	~100	Cc1cnc(-c2cc(N3CCc4nc(N5CCC(O)CC5)ncc4[C@H]3C)ncc2Cl)c(C)c1 [Compound B1, (R)-1-(6-(5′-chloro-3,5-dimethyl-[2,4′-bipyridin]-2′-yl)-5-methyl-5,6,7,8-tetrahydropyrido[4,3-d]pyrimidin-2-yl)piperidin-4-ol]	reduce the tumor volume to almost disappear; also recorded: may decrease the tumor volume	effect on tumor volume (in words) ([1]; listed as chiral compound): shrink the tumor volume to almost undetectable; increase of drug exposure (AUC) over that of A-55 [2]: 122%; t1/2 ([2]; I.V., 2 mg/kg): 1.7 h; Cmax ([2]; P.O., 10 mg/kg): 1520 ng/mL; Tmax ([2]; P.O., 10 mg/kg): 1 h; half-life ([2]; male, Sprague-Dawley, plasma, intravenous injection, 2 mg/kg, read-out: Half-life t1/2 (converted)): 1.7 h
